The text below walks through data of ChEMBL document CHEMBL3621100, “Discovery of Novel Class I Histone Deacetylase Inhibitors with Promising in Vitro and in Vivo Antitumor Activities” (J Med Chem, 2015).

One data set deals with Histone deacetylase 9 (Homo sapiens, UniProt Q9UKV0). The data set can be described thus: Inhibition of recombinant human HDAC9 after 60 mins by fluorescence assay.
A further data set has as its target T1, Histone deacetylase 7 (Homo sapiens, UniProt Q8WUI4).
T1 sequence (Q8WUI4 whole entry): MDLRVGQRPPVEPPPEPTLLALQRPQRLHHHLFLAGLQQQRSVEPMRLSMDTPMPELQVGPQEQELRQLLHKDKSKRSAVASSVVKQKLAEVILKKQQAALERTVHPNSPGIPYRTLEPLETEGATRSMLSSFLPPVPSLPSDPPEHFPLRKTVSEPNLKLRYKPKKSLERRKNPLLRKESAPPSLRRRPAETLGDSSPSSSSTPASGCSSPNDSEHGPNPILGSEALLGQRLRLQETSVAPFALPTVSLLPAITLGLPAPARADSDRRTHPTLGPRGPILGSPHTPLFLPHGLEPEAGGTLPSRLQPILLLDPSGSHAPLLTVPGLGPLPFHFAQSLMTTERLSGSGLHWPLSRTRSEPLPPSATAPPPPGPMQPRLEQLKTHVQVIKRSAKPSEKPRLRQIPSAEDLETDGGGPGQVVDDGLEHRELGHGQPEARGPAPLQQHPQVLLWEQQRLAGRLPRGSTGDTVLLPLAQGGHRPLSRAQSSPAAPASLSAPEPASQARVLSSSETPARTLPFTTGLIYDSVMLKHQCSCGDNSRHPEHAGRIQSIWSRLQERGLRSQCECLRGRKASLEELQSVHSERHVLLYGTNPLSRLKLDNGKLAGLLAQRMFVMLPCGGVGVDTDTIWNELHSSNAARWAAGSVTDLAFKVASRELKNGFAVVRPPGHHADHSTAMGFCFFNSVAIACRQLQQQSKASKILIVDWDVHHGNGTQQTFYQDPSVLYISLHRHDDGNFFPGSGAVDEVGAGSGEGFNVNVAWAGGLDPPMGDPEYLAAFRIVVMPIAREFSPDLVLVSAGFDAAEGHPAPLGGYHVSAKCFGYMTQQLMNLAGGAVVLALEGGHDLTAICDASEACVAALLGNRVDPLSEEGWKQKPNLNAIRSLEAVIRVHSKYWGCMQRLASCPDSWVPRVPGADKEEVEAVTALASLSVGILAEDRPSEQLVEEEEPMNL
The experiment in a line: Inhibition of recombinant human HDAC7 after 60 mins by fluorescence assay.

A further data set concerns the target Histone deacetylase 4 (Homo sapiens, UniProt P56524). The data set can be described thus: Inhibition of recombinant human HDAC4 after 60 mins by fluorescence assay.
A further data set concerns the target Histone deacetylase 3 (Homo sapiens, UniProt O15379). The experiment in a line: Inhibition of recombinant human HDAC3 after 60 mins by fluorescence assay.
In data set [1] the test system is DU-145. The data set can be described thus: Antiproliferative activity against human DU145 cells after 72 hrs by CCK8 assay. In kind it is functional. The note with it: Homo sapiens, DU-145, 72 h. Background: Tetrazolium assays rely on reduction of a dye to a coloured formazan, in cell work by metabolically active cells.
Data set [2] relates to DU-145. The data set can be described thus: Fold increase in DU145 over HLF selectivity (GI50 ratio) relative to FK228 after 72 hrs by CCK8 assay.
The next data set in a line: in vitro. The note with it: human, DU145 cells and HLF cells.
Data set [3] can be described thus: Antiproliferative activity against human HLF cells after 72 hrs by CCK8 assay. It is filed as cell-based.
Data set [4] deals with DU-145. The data set can be described thus: Fold increase in DU145 over HLF selectivity (GI50 ratio) relative to largazole after 72 hrs by CCK8 assay.
Data set [5] deals with DU-145. The data set can be described thus: Antitumor activity against human DU145 cells xenografted in BALB/c mouse assessed as tumor growth inhibition at 20 mg/kg, iv administered for 5 times a week for after 4 weeks. It is filed as functional. Particulars: DU-145, iv, 672 h, read-out: GI. (In general: Xenograft models place foreign cells or tissue in a host animal.)
The subject of data set [6] is DU-145. The data set can be described thus: Antitumor activity against human DU145 cells xenografted in BALB/c mouse assessed as delay in tumor growth at 40 mg/kg, iv administered for 5 times a week for after 4 weeks. In kind it is functional.
The test system of data set [7] is DU-145. The data set can be described thus: Antitumor activity against human DU145 cells xenografted in iv dosed BALB/c mouse assessed as delay in tumor growth after 4 weeks. In kind it is functional, organism-based.
Data set [8] has as its system DU-145. The data set can be described thus: Antitumor activity against human DU145 cells xenografted in BALB/c mouse assessed as delay in tumor growth at 20 mg/kg, iv administered for 5 times a week for after 4 weeks. In kind it is functional.
Data set [9] concerns DU-145. The experiment in a line: Antitumor activity against human DU145 cells xenografted in BALB/c mouse assessed as delay in tumor growth at 80 mg/kg, iv administered for 5 times a week for after 4 weeks. In kind it is functional.
In data set [10] the test system is Mus musculus. The data set can be described thus: Toxicity in human DU145 cells xenografted BALB/c mouse assessed as mortality at 20 to 80 mg/kg, iv administered for 5 times a week for after 4 weeks. In kind it is organism-based, DU-145. Particulars: in vivo, 672 h.
In data set [11] the test system is Mus musculus. The data set can be described thus: Toxicity in human DU145 cells xenografted BALB/c mouse assessed as change in body weight at 20 to 80 mg/kg, iv administered for 5 times a week for after 4 weeks. In kind it is organism-based, DU-145. Particulars: in vivo, 672 h.
Data set [12] in a line: Aqueous solubility of the compound. It is filed as physicochemical. Particulars: buffer.

The term IC50 denotes the concentration that gives 50% inhibition. In general, GI50 refers to the concentration giving 50% growth inhibition.

Bounds are passed on as bounds.

Histone deacetylase 3, sequence (O15379 whole entry): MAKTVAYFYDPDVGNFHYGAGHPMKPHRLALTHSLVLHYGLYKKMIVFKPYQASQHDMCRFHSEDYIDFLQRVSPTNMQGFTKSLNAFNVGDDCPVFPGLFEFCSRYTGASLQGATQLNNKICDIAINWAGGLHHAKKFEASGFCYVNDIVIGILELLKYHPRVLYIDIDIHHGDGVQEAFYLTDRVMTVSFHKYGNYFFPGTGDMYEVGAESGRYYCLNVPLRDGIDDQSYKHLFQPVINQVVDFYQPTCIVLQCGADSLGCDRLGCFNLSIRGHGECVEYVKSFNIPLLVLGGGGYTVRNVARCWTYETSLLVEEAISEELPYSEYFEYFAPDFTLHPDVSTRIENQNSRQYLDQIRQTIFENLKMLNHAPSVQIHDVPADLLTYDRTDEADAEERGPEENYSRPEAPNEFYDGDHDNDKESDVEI
Histone deacetylase 9, sequence (Q9UKV0 whole entry): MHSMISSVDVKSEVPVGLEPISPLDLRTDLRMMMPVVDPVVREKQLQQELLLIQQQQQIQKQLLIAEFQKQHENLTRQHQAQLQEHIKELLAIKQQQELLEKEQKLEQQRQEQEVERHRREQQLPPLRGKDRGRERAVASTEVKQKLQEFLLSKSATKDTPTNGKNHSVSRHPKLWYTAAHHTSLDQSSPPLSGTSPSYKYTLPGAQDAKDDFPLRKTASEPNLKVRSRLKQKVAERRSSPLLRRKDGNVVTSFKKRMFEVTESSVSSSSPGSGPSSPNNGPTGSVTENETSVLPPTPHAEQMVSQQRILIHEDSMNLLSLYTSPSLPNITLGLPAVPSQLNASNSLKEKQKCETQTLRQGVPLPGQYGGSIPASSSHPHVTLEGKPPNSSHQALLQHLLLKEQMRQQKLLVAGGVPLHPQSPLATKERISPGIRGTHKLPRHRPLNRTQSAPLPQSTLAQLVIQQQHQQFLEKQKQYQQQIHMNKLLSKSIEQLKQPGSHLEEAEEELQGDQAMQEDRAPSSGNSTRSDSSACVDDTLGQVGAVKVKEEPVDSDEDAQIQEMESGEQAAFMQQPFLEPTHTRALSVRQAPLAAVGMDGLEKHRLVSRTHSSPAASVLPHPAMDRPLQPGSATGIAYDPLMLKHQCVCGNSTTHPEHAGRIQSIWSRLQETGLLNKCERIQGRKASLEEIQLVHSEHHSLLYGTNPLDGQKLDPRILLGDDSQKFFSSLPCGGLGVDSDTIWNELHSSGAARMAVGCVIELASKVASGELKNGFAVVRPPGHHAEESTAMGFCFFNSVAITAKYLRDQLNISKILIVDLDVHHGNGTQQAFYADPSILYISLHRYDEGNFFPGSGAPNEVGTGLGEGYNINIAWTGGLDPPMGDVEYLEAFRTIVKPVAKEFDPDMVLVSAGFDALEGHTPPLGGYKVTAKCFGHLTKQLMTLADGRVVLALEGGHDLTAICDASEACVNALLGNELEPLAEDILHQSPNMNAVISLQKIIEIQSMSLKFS
Histone deacetylase 4, sequence (P56524 whole entry): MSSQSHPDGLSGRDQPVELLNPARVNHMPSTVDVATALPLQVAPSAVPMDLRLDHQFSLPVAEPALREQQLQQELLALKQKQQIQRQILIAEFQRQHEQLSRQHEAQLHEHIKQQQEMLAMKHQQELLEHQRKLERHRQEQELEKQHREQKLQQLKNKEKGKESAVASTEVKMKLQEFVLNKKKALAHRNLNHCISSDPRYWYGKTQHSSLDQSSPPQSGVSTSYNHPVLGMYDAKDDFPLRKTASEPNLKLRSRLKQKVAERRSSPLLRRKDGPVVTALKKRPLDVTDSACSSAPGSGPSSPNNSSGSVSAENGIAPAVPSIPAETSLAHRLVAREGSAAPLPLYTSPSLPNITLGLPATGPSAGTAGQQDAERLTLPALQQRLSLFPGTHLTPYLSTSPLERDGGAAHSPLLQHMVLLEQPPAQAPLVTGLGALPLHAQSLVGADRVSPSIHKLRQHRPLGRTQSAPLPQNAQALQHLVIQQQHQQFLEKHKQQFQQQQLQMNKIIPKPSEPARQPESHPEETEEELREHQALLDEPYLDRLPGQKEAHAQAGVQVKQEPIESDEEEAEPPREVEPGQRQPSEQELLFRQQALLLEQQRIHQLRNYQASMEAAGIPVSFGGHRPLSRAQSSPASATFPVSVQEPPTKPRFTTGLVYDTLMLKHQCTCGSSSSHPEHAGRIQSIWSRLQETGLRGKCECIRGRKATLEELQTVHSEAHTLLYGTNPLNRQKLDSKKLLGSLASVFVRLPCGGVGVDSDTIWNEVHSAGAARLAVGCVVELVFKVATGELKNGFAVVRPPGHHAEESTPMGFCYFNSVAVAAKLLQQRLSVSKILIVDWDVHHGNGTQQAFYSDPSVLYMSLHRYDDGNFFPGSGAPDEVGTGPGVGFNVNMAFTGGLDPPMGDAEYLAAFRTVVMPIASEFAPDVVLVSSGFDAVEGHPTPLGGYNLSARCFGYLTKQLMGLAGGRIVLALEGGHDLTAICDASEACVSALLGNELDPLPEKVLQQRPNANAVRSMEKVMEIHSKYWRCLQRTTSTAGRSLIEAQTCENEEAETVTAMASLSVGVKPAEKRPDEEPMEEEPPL
Description for in vitro: Selectivity ratio of GI50 for human DU145 cells to GI50 for human HLF cells

With `C/C=C1\NC(=O)c2csc(n2)[C@@H](C(C)C)NC(=O)C[C@@H](/C=C/CCS)OC(=O)[C@H](C(C)C)NC1=O`, the IC50 at Histone deacetylase 9 was greater than 10 µM; on Histone deacetylase 7, greater than 10 µM; on Histone deacetylase 4 it was greater than 10 µM; on Histone deacetylase 3, 9.77 nM.
Consider `C/C=C1\NC(=O)c2csc(n2)CNC(=O)C[C@@H](/C=C/CCS)OC(=O)[C@H](C(C)C)NC1=O`, for which the IC50 is greater than 10 µM on Histone deacetylase 9, greater than 10 µM at Histone deacetylase 7, greater than 10 µM on Histone deacetylase 4 and 7.67 nM at Histone deacetylase 3.
For the molecule `C/C=C1\NC(=O)c2csc(n2)[C@@H](C(C)C)NC(=O)C[C@@H](/C=C/CCSC(=O)CCCCCCC)OC(=O)[C@H](C(C)C)NC1=O`, the IC50 on Histone deacetylase 9 is greater than 10 µM; at Histone deacetylase 7, greater than 10 µM; at Histone deacetylase 4, greater than 10 µM; on Histone deacetylase 3, 3150 nM. It took 20.5 nM to inhibit growth in the data set with DU-145 [1] by half (GI50). Further, in the data set on DU-145 [2], the Ratio was found to be 8. For the same molecule, the selectivity ratio in “in vitro” was determined as 0.029. For the same molecule, in data set [3], growth was halved (GI50 at 72 h) at 710 nM.
Consider `C/C=C1\NC(=O)c2csc(n2)CNC(=O)C[C@@H](/C=C/CCSC(=O)CCCCCCC)OC(=O)[C@H](C(C)C)NC1=O`, for which the IC50 on Histone deacetylase 9 was greater than 10 µM; at Histone deacetylase 7, greater than 10 µM; at Histone deacetylase 4, greater than 10 µM; on Histone deacetylase 3 it was 1680 nM. In addition, the figures for the Ratio in the data set on DU-145 [4] and with DU-145 [2] were 20 and 22, respectively. For the same molecule, the GI50 in the data set on DU-145 [1] was determined as 6.99 nM. Also, the selectivity ratio in “in vitro” came out at 0.022. The same molecule returned a GI50 at 72 h in data set [3] of 312 nM.
Take `C/C=C1\NC(=O)c2csc(n2)CNC(=O)C[C@@H](/C=C/CCSC(C)=O)OC(=O)[C@H](C(C)C)NC1=O`: in the data set with DU-145 [5], the inhibition in vivo at 20 mg/kg was 51.7%. Further, the IC50 was greater than 10 µM on Histone deacetylase 9, greater than 10 µM at Histone deacetylase 7, greater than 10 µM on Histone deacetylase 4 and 73 nM on Histone deacetylase 3. In the data set on DU-145 [1], the GI50 was determined as 11 nM. Moreover, the Activity in the data set on DU-145 [6] is 75.2%; in the data set with DU-145 [7] it was “Dose-dependent effect”; in the data set on DU-145 [8], 51.7%; in the data set with DU-145 [9] it was 81.2%; with Mus musculus [10] it was “Non-toxic”; in the data set with Mus musculus [11], “Non-toxic”. For the same molecule, the selectivity ratio in “in vitro” stood at 0.034. The solubility result in data set [12] is on record as “soluble”. The molecule further came in with a GI50 at 72 h in data set [3] of 321 nM.
